These results are taken from PMC10388327, “Dual Piperidine-Based Histamine H3 and Sigma-1 Receptor Ligands in the Treatment of Nociceptive and Neuropathic Pain” (Journal of Medicinal Chemistry, 2023).

In data set [1] the test system is mice. Nature of the data set: oxaliplatin-induced neuropathy, von Frey test. Type of data set: in vivo. The following applies: for pain threshold after single administration, early phase: 3 h after OXPT; for pain threshold after single administration, late phase: 7 days after OXPT. The method, then: The neuropathy manifests as a decrease in the pain threshold and can be observed in hours or in days after oxaliplatin administration, which is called the early or late phase of neuropathic pain, respectively. We tested the influence of compound 12 on tactile allodynia using the von Frey method 3 h and 7 days after the induction of neuropathy.[12]
Neuropathy was induced by the administration of a single dose (10 mg/kg) of oxaliplatin (OXPT) dissolved in a 5% glucose solution (Polfa Kutno, Poland). To assess the sensitivity to mechanical stimuli, the von Frey test was carried out using the electronic von Frey unit (Bioseb, France). The apparatus was supplied with a single flexible filament, which was used to apply increasing force (from 0 to 10 g) against the plantar surface of the hind paw of the mouse. […] The measurement was done before the OXPT administration and 3 h and 7 days afterward. The compounds were administrated to the animals with tactile allodynia observed as a statistically significant decrease in pain threshold. On the day of the experiment, each mouse was placed in an observation chamber with a wire mesh bottom and was allowed to habituate for 1 h. After the habituation period, the mouse pain threshold was tested three times alternately with at least 30 s gap between each measurement. The mean of these three consecutive measurements was taken as the baseline value. The mice with tactile allodynia were i.p. pretreated with the tested compound, and 30 min later, the animals were tested again according to the same procedure.[92]

Data set [2] concerns the target T1, sigma-1 receptor (σ1R) (Cavia porcellus, UniProt Q60492).
T1 construct: The thawed membrane preparation of the guinea pig brain cortex was incubated; from tissue; host or cells: male Dunkin-Hartley guinea pig brain cortex membranes
Nature of the data set: σ1R radioligand binding ([3H](+)-pentazocine). Details: species or system guinea pig. The following applies: read-out: σ1R Ki [nM] x̄ [CI 95%]; mean [CI 95%].

The subject of data set [3] is sigma-1 receptor (σ1R). Nature of the data set: σ1R radioligand binding ([3H](+)-pentazocine). On the set-up: species or system guinea pig. Particulars: ratio of σ2R Ki to σ1R Ki.
Data set [4] deals with CCI-exposed mice. The data set is described as follows: chronic constriction injury (CCI) of the sciatic nerve, von Frey test. Type of data set: in vivo, male albino Swiss CD-1 mice. The method, then:
(§1) Behavioral assessment of 12 was performed 14 days after the sciatic nerve injury. Mice were randomly assigned to four treatment groups: vehicle-treated (i.p.) and 12-treated (5, 10, and 15 mg/kg, i.p.). Baseline measurements (basal) for all tests were performed before compound injections, and the results are presented as percentages of the maximal possible effect (% MPE). We observed a significant effect of the tested compound in the von Frey test at all tested time points (30 min: F(3, 26) = 12.38, p < 0,0001; 90 min: F(3, 26) = 12.65, p < 0.0001; 180 min: F(3, 26) = 6.464, p = 0.0020). […] We also observed a significant effect of treatment on the contralateral paw 90 min after injection (F(3, 26) = 5.741, p = 0.0037).
The model of chronic constriction injury (CCI) to the sciatic nerve was established according to Bennett and Xie.[94] The surgical method was performed under isoflurate anesthesia (2% isoflurane in 100% oxygen with a flow of 1.5 L/min).[95] Below the right hipbone, a small incision was performed, and three ligatures (4/0 silk) around the sciatic nerve were made (with 1 mm spacing) until a brief twitch in the respective hind limb was observed. All mice that underwent the CCI procedure developed hypersensitivity to mechanical and thermal stimuli. Behavioral tests were performed at day 14 after injury. Compound 12 was dissolved in 10% DMSO/10% (2-hydroxypropyl)-β-cyclodextrin/water and administered i.p. at doses 5, 10, and 15 mg/kg (injection volume 10 mL/kg of body weight). The control group received the vehicle (10% DMSO/10% (2-hydroxypropyl)-β-cyclodextrin/water).
Behavioral experiments were performed between 8:00 a.m. and 2:00 p.m. Across the experiments, we compared vehicle-treated mice with 12-treated animals. Experiments were performed 30, 90, and 180 min (von Frey test); 35, 95, and 185 min (cold plate test); and 40, 100, and 190 min (tail flick test) after the vehicle or 12 administration.
The von Frey test was used to measure mechanical hypersensitivity as described in a previous publication.[95] The animals were placed in cages with a wire net floor. The reaction (paw withdrawal, shaking, or licking) of the ipsilateral (Figure 15) and contralateral (Figure S33) paw of CCI-exposed mice to the mechanical stimulator (calibrated nylon monofilaments (0.6–6 g; Stoelting)) in serial increments was observed.

Data set [5] relates to CCI-exposed mice. The data set is described as follows: CCI of the sciatic nerve, tail flick test. It counts as in vivo, male albino Swiss CD-1 mice. The method, then: as §1
The model of chronic constriction injury (CCI) to the sciatic nerve was established according to Bennett and Xie.[94] The surgical method was performed under isoflurate anesthesia (2% isoflurane in 100% oxygen with a flow of 1.5 L/min).[95] […]
Tail flick latency was measured on the dorsal part of the tail at two-thirds of its length by applying a focused beam of light (thermal stimulus). The time interval between onset of the thermal stimulus and withdrawal of the tail from the beam was recorded; the cutoff latency was 9 s to prevent tissue damage.
(Hot-plate and tail-flick tests time the reaction to a heat stimulus.)

Data set [6] has as its system mice. The data set is described as follows: capsaicin-induced nociception. It counts as in vivo. The protocol:
The procedure used was similar to that described previously.[88],[89] The pain reaction was induced by the injection of 20 μL of capsaicin solution (1.6 μg/paw made in PBS) under the skin of the dorsal surface of the mice right hindpaw. The animals were observed individually in an observation chamber for 5 min following capsaicin injection. The amount of time spent licking the injected paw was recorded by means of the stopwatch and was considered as indicative of pain. The animals were pretreated with the vehicle (10 mL/kg, negative control) and investigated compound (10, 15, and 30 mg/kg).

The test system of data set [7] is mice. The data set is described as follows: spontaneous locomotor activity. It counts as in vivo. The method, then: (§2) The high sedative activity of analgesics is considered an undesirable property, which may lead to an incorrect or ambiguous interpretation of the in vivo results. Moreover, it may limit the potential clinical application of new drug candidates.
(§3) This test was carried out according to the procedure described elsewhere.[84] The animals were injected (i.p.) with 12 at doses of 5, 15, and 30 mg/kg and placed in the activity cages individually (30 min before the experiment). The number of light-beam crossings was counted in each group during the next 30 min in 10 min intervals.

Data set [8] in a line: spontaneous locomotor activity. Type of data set: in vivo, mice. The following applies: mouse, in vivo, ip; estimated; read-out: ED50, decrease of spontaneous locomotor activity. The protocol:
as §2, §3

Where a name gives a salt, the structure may show the parent alone.

T1 sequence (Q60492 whole entry): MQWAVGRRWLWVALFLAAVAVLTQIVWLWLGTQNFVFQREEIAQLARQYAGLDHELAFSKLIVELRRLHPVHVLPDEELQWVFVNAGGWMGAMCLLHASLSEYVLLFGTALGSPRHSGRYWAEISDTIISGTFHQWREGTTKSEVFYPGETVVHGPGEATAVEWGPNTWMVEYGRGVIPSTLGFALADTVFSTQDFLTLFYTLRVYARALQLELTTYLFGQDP

For the compound `N#Cc1ccc(-c2ccc(OCCCN3CCC(c4ccncc4)CC3)cc2)cc1` [Compound 12, 4′-(3-(4-(Pyridin-4-yl)piperidin-1-yl)propoxy)-[1,1′-biphenyl]-4-carbonitrile Oxalate], the results for the “pain threshold after single administration, early phase” value with mice [1] (5 mg/kg i.p.), in the data set on mice [1] (10 mg/kg i.p.) and with mice [1] (15 mg/kg i.p.) were 88.6 % of the baseline, 115.0 % of the baseline and 124.3 % of the baseline, respectively. For the same compound, the “pain threshold after single administration, late phase” value in the data set on mice [1] (10 mg/kg i.p.) was 99.8 % of the baseline; in the data set with mice [1] (15 mg/kg i.p.), 123.7 % of the baseline. The inhibition constant (Ki) (as a rule, the equilibrium dissociation constant of an inhibitor or competing ligand from its target) at sigma-1 receptor (σ1R) [2] amounted to 4.5 nM. Moreover, the σ2/σ1 ratio in the data set on sigma-1 receptor (σ1R) [3] was 2.2. For the same compound, the “effect on contralateral paw, von Frey test” value in the data set with CCI-exposed mice [4] (15 mg/kg, 30 and 180 min) was “reduced the withdrawal threshold 30 and 180 min after injection, although this effect was not statistically significant”; in the data set with CCI-exposed mice [4] (15 mg/kg, 90 min), “significant effect (p = 0.0056)”; in the data set on CCI-exposed mice [4] (5 and 10 mg/kg, all time points), “no effects of compound 12 (for doses 5 and 10 mg/kg) on tactile allodynia”. Moreover, the “analgesic effect, von Frey test, ipsilateral paw” value in the data set with CCI-exposed mice [4] (90 and 180 min after i.p. injection) was “only at a dose of 10 mg/kg increased the withdrawal thresholds”; with CCI-exposed mice [4] (30 min after i.p. injection, 5, 10, 15 mg/kg, day 14 after CCI), “significant analgesic effects 30 min after injection of 5 (p < 0.0001) and 10 mg/kg (p = 0.0201)”. Further, the “analgesic effect, tail flick test” value in the data set with CCI-exposed mice [5] (100 and 190 min after i.p. injection) is “only the 10 mg/kg dose had significant analgesic effects”; in the data set with CCI-exposed mice [5] (40 min after i.p. injection), “significant analgesic action of 12 at 40 min (for doses 5 (p = 0.021) and 10 mg/kg (p < 0.0001))”. Moreover, in the data set on mice [6] (10, 15 and 30 mg/kg), the “effect on nociceptive response in capsaicin test” value is on record as “significantly decreased the paw licking or biting behavior”. Further, the median effective dose (ED50) – broadly, the midpoint of the dose-response relation – with mice [6] (Mus musculus, 5 min, 5 min after intraplantar capsaicin, read-out: ED50, capsaicin test) turned out to be 10.3 mg/kg. Moreover, the “influence on spontaneous locomotor activity (sedative effect)” value in the data set on mice [7] (15 mg/kg i.p.) is reported as “decreased spontaneous locomotor activity, but the effect was not statistically significant”; in the data set with mice [7] (30 mg/kg i.p.), “significantly decreased locomotor activity”. For the same compound, the ED50 at 30 min in data set [8] was 22 mg/kg.
